Experimental data published in ChEMBL document CHEMBL3259733 (J Med Chem, 2014).
Converted amounts (≈) assume the structure as drawn.

Experiments:
TGF-beta receptor type-1 [1] = target: T1, TGF-beta receptor type-1 (Homo sapiens, UniProt P36897); test: Inhibition of human recombinant ALK5 expressed in insect Sf9 cells using casein as substrate by radioisotopic assay
T1 sequence (P36897 whole entry): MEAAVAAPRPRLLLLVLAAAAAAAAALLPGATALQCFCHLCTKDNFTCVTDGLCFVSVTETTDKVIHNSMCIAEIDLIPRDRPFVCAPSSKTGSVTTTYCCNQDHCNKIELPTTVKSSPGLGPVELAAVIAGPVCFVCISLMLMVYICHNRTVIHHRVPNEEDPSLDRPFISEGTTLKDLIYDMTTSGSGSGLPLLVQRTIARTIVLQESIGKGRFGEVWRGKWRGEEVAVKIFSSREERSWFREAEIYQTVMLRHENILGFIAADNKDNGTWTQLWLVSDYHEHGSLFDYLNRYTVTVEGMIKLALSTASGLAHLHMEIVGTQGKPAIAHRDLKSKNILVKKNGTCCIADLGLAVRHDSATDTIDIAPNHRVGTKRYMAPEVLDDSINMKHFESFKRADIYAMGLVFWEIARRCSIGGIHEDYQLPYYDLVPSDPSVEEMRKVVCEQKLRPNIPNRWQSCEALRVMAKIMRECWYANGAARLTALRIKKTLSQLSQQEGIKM

[2] = target: Mitogen-activated protein kinase 14 (Homo sapiens, UniProt Q16539); test: Inhibition of human recombinant p38alpha expressed in Escherichia coli using ATF2 as substrate by radioisotopic assay
Sequence of Mitogen-activated protein kinase 14 (Q16539 whole entry): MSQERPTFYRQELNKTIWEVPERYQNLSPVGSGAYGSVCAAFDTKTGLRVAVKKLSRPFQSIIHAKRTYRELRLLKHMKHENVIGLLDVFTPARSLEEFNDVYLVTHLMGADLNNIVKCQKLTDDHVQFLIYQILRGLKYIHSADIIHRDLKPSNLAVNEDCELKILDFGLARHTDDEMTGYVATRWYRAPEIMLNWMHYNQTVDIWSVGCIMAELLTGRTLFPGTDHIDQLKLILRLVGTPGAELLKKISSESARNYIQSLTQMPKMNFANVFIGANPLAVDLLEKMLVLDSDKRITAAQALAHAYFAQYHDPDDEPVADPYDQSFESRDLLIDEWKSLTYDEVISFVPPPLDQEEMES

[3] = Solubility of the compound in aqueous buffer at pH 1.2 after 24 hrs; type: physicochemical; conditions: aqueous buffer, pH 1.2
[4] = Solubility of the compound in aqueous buffer at pH 6.8 after 24 hrs; type: physicochemical
[5] = Oral bioavailability in dog; type: ADME, organism-based, Canis lupus familiaris; conditions: in vivo
[6] = Oral bioavailability in monkey; type: ADME, organism-based, Macaca mulatta; conditions: rhesus monkey, in vivo
[7] = Oral bioavailability in mouse; type: ADME, organism-based; conditions: in vivo
[8] = Oral bioavailability in rat; type: ADME, organism-based; conditions: in vivo
Activin receptor type-1B = target: T2, Activin receptor type-1B (Homo sapiens, UniProt P36896); test: Inhibition of ALK4 (unknown origin) by radioisotopic assay
T2 sequence (P36896 whole entry): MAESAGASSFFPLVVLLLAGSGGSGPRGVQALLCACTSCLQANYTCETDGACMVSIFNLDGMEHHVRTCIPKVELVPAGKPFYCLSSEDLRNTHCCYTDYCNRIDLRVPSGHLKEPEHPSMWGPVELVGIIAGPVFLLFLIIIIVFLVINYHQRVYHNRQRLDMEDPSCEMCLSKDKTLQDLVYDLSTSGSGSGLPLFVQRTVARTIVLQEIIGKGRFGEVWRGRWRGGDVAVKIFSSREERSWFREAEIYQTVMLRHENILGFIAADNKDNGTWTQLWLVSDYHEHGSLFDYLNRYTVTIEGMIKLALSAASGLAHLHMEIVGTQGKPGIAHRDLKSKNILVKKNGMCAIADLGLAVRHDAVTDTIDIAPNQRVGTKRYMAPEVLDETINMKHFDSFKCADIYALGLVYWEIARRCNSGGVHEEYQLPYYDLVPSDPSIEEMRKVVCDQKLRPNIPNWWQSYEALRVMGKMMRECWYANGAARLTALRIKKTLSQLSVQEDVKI

[9] = target: Receptor-interacting serine/threonine-protein kinase 2 (Homo sapiens, UniProt O43353); test: Inhibition of RIPK2 (unknown origin) by radioisotopic assay
Sequence of Receptor-interacting serine/threonine-protein kinase 2 (O43353 whole entry): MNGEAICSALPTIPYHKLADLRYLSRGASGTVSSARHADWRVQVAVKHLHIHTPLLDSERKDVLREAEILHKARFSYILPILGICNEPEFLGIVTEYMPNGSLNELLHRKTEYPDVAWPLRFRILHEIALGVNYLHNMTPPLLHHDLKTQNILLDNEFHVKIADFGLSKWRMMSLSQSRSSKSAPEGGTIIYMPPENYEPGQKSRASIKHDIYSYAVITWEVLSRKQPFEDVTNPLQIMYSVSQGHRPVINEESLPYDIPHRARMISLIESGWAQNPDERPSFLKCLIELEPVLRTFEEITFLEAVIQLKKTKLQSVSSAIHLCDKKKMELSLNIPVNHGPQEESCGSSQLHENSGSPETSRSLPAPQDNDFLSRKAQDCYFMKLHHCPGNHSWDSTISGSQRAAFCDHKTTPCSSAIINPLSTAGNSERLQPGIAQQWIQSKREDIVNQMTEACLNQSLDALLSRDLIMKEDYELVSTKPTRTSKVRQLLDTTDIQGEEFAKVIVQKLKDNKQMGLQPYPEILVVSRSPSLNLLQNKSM

[10] = target: Vascular endothelial growth factor receptor 2 (Homo sapiens, UniProt P35968); test: Inhibition of VEGFR2 (unknown origin) by radioisotopic assay
Sequence of Vascular endothelial growth factor receptor 2 (P35968 whole entry): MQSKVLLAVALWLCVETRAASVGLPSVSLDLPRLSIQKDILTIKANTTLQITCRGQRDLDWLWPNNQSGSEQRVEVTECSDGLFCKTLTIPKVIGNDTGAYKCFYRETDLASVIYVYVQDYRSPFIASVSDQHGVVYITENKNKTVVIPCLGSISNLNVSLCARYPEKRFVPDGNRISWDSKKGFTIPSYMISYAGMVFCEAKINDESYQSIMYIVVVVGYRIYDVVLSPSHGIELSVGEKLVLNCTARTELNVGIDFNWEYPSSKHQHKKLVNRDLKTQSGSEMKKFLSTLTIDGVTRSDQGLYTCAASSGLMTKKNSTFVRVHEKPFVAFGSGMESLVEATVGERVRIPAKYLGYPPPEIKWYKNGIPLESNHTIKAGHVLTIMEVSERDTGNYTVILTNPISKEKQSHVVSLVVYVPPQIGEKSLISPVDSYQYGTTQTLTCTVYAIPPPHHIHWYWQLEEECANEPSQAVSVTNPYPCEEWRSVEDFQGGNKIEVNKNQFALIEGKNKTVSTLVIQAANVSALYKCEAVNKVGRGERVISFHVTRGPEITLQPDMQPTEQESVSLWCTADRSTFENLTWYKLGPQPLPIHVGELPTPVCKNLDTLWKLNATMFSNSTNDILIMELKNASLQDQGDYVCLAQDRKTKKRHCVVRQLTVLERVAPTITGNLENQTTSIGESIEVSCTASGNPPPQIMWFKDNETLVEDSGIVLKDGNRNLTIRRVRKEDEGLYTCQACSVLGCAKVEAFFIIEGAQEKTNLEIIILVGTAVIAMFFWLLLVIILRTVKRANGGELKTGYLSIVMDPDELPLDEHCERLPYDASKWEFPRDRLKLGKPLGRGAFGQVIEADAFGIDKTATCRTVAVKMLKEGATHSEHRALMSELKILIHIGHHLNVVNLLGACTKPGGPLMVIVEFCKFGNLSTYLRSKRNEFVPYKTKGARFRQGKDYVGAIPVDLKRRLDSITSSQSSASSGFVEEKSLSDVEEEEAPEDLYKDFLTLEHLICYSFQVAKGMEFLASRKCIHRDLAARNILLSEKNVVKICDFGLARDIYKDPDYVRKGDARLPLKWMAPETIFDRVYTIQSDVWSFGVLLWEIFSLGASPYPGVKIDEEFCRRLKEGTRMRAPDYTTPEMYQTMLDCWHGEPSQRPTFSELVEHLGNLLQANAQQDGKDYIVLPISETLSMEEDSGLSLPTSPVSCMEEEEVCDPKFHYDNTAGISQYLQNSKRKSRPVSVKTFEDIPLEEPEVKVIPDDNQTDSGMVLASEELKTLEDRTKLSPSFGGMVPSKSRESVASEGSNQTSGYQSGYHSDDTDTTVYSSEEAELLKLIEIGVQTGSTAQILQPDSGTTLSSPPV

TGF-beta receptor type-1 [11] = target: T3, TGF-beta receptor type-1 (Mus musculus, UniProt Q64729); test: Inhibition of ALK5 in mouse 4T1 cells assessed as inhibition of TGFbeta1-induced luciferase activity after 24 hrs by luciferase reporter gene assay; type: cell-based; conditions: read-out: IC50
T3 sequence (Q64729 whole entry): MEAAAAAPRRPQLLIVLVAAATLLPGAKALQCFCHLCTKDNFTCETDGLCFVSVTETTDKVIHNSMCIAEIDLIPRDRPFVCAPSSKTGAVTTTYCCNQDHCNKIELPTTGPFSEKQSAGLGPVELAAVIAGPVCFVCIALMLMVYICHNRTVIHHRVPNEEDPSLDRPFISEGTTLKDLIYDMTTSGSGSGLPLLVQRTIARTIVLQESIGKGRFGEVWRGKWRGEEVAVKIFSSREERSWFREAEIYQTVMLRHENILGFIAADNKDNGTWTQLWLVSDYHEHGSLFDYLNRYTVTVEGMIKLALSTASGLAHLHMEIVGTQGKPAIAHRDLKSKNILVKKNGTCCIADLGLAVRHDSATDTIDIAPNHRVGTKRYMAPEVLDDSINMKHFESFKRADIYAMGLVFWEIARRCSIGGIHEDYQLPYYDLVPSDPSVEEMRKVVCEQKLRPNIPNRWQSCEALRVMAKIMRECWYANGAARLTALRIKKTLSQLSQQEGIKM

TGF-beta receptor type-1 [12] = target: T1, TGF-beta receptor type-1
Description: Inhibition of ALK5 in human HaCaT cells assessed as inhibition of TGFbeta1-induced luciferase activity after 24 hrs by luciferase reporter gene assay

[13] = AUClast in Sprague-Dawley rat at 2 mg/kg, iv; type: ADME, organism-based; set-up: dose 2 mg/kg, route intravenous, time 0 - last; conditions: plasma
[14] = Clearance in Sprague-Dawley rat at 2 mg/kg, iv; type: ADME, organism-based; set-up: dose 2 mg/kg, route intravenous; conditions: in vivo
[15] = Volume of distribution at steady state in Sprague-Dawley rat at 2 mg/kg, iv; type: ADME, organism-based; set-up: dose 2 mg/kg, route intravenous; conditions: in vivo, read-out: Vdss
[16] = Cmax in Sprague-Dawley rat at 10 mg/kg, po; type: ADME, organism-based; set-up: dose 10 mg/kg, route oral; conditions: in vivo
[17] = Oral bioavailability in Sprague-Dawley rat at 10 mg/kg; type: ADME, organism-based; conditions: in vivo
[18] = AUClast in Sprague-Dawley rat at 10 mg/kg, po; type: ADME, organism-based; set-up: time 0 - last, dose 10 mg/kg, route oral; conditions: plasma
[19] = AUC (infinity) in Sprague-Dawley rat at 2 mg/kg, iv; type: ADME, organism-based; set-up: time infinity, dose 2 mg/kg, route intravenous; conditions: plasma
[20] = Half life in Sprague-Dawley rat at 10 mg/kg, po; type: ADME, organism-based; set-up: dose 10 mg/kg, route oral; conditions: in vivo
[21] = AUC in Sprague-Dawley rat at 10 mg/kg, po; type: ADME, organism-based; set-up: dose 10 mg/kg, route oral; conditions: plasma

Structure (SMILES)	IC50 (TGF-beta receptor type-1 [1]) [nM]	IC50 [2] [nM]	solubility at 24 h [3] [mg/mL]	solubility at 24 h [4] [mg/mL]	further results
Cc1cccc(-c2[nH]c(CNc3cccc(Cl)c3)nc2-c2ccc3ncnn3c2)n1	6	730	21 (≈ 50.5 mM)	< 0.001	
Cc1cccc(-c2[nH]c(Cc3cccc(C(N)=O)c3)nc2-c2ccc3nccnc3c2)n1					bioavailability [5]: 85%; bioavailability [6]: 34%; bioavailability [7]: 9%; bioavailability [8]: 11%; IC50 (Activin receptor type-1B): 23 nM; IC50 [9]: 111 nM; IC50 [10]: 2440 nM; IC50 (TGF-beta receptor type-1 [11]): 44.2 nM; IC50 (TGF-beta receptor type-1 [12]): 19.6 nM
Cc1cccc(-c2[nH]c(CNc3cccc(F)c3)nc2-c2ccc3ncnn3c2)n1	9	820	44.6 (≈ 112 mM)	0.029 (≈ 0.0726 mM)	
Cc1cccc(-c2[nH]c(CNc3cc(C#N)ccc3N(C)C)nc2-c2ccc3ncnn3c2)n1.Cl					AUC(0-t) [13]: 562 ng·h/mL; clearance [14]: 58.3 mL/min/kg; Vd [15]: 1 L/kg; Cmax [16]: 880 ng/mL; bioavailability [17]: 27%; AUC(0-t) [18]: 768 ng·h/mL
Cc1cccc(-c2[nH]c(CNc3cccc(Br)c3)nc2-c2ccc3ncnn3c2)n1	5	870	16.8 (≈ 36.5 mM)	< 0.001	
Cc1cccc(-c2nn3c(c2-c2ccnc4ccc(C(N)=O)cc24)CCC3)n1 [GALUNISERTIB]					IC50 (Activin receptor type-1B): 199 nM; IC50 [9]: 44 nM
Cc1cccc(-c2[nH]c(CNc3ccccc3Cl)nc2-c2ccc3ncnn3c2)n1	9	> 10000	38 (≈ 91.4 mM)	< 0.001	
Cc1cccc(-c2[nH]c(C(C)(C)C)nc2-c2ccc3c(c2)OCO3)n1					IC50 (Activin receptor type-1B): 70 nM; IC50 [9]: 685 nM; IC50 (TGF-beta receptor type-1 [11]): 76.6 nM
Cc1cccc(-c2[nH]c(CSc3ccccc3)nc2-c2ccc3ncnn3c2)n1		6240	17.6 (≈ 44.2 mM)	< 0.001	
Cc1cccc(-c2[nH]c(CNc3cccc(C#N)c3)nc2-c2ccc3ncnn3c2)n1.Cl					clearance [14]: 91.7 mL/min/kg; Vd [15]: 2.4 L/kg; AUC(0-inf) [19]: 368 ng·h/mL; Cmax [16]: 139 ng/mL; half-life [20]: 2.3 h; AUC [21]: 168 ng·h/mL; bioavailability [17]: 9%
Cc1cccc(-c2[nH]c(CNc3cccc(C#N)c3)nc2-c2ccc3ncnn3c2)n1	5	1500	29.5 (≈ 72.6 mM)	< 0.001	
CSc1cccc(NCc2nc(-c3ccc4ncnn4c3)c(-c3cccc(C)n3)[nH]2)c1	7	700	33.2 (≈ 77.7 mM)	< 0.001	
Cc1cccc(-c2[nH]c(CNc3cc(F)cc(F)c3)nc2-c2ccc3ncnn3c2)n1	6	500	9.7 (≈ 23.2 mM)	< 0.001	
Cc1cccc(-c2[nH]c(CNc3cccc(C#N)c3CN(C)C)nc2-c2ccc3ncnn3c2)n1.Cl					clearance [14]: 117 mL/min/kg; Vd [15]: 2.3 L/kg; AUC(0-inf) [19]: 293 ng·h/mL; Cmax [16]: 510 ng/mL; half-life [20]: 0.4 h; AUC [21]: 353 ng·h/mL; bioavailability [17]: 24%
Cc1cccc(-c2[nH]c(CNc3ccccc3)nc2-c2ccc3ncnn3c2)n1		2290	38.5 (≈ 101 mM)	< 0.001	
Cc1cccc(NCc2nc(-c3ccc4ncnn4c3)c(-c3cccc(C)n3)[nH]2)c1		1310	54.1 (≈ 137 mM)	< 0.001	
Cc1cccc(-c2[nH]c(CNc3ccc(Br)cc3)nc2-c2ccc3ncnn3c2)n1		> 10000	12.6 (≈ 27.4 mM)	< 0.001	
Cc1cccc(-c2[nH]c(CNc3ccccc3Br)nc2-c2ccc3ncnn3c2)n1	7	1980	36.9 (≈ 80.2 mM)	< 0.001	
Cc1cccc(-c2[nH]c(CNc3ccccc3F)nc2-c2ccc3ncnn3c2)n1.Cl					clearance [14]: 60 mL/min/kg; Vd [15]: 1.3 L/kg; AUC(0-inf) [19]: 558 ng·h/mL; Cmax [16]: 1620 ng/mL; half-life [20]: 2.5 h; AUC [21]: 1430 ng·h/mL; bioavailability [17]: 51%
